Laboratory results: US20170304228A1, “NEW INDICATION OF CINACALCET HCL PHARMACEUTICAL COMPOSITION FOR TREATING CANCER” (LAUNX BIOMEDICAL CO., LTD., priority 2014, published 2017)
Structures can show the parent of a compound that is named as a salt. Where two headings read alike, the source gives them in different places.

Key:
Assay type in all cases: cell-based
786-O = test: Cell viability analysis (WST-1), 786-O; conditions: Homo sapiens
Experimental: (§1) The cell numbers were counted and reseed as 2×10^6 in culture plate/flask. Then, the culture medium were added to a volume of 10 ml, and the cells were cultured for 2-3 days. Then, the cells were suspended for loading into 96-well plates. The number of cells was 3000 and the volume of the culture medium was 100 μl each well.
(§2) Removing the original culture medium from 96-well plate. Then add 100 μl of commercially drug at a concentration of 10 μM per well. After 72 hours, add the diluted WST-1 reagent to the well with 100 μl/well, and the diluted WST-1 reagent was acquired from the dilution of 9:1 medium and WST-1 stock reagent. Finally, the total volume of each well was 200 μl/well. Culture the 96-well plate at 37° C. for 30 to 90 minutes. Detecting and calculate the survival rate of each cancer cells with an ELISA reader at OD450 nm. The lower viability of cancer cells represents better inhibition effect via the Cinacalcet HCl drug. Otherwise, the higher viability of cancer cells represents worse inhibition effect via the Cinacalcet HCl drug.
This inhibition test of Cinacalcet HCl on abdominal-related cancer cells were using bladder cancer cell line TSGH and T24 (Table 3), cervical cancer cell lines HeLa and C-33A (Table 4), renal cancer cell line 786-O (Table 5). The inhibitory tests of Cinacalcet HCl were performed 4 times for each cell lines and then the average value of the inhibitory tests was calculated.

PC-3 = test: Cell viability analysis (WST-1), PC-3; conditions: Homo sapiens, read-out: survival rate (viability) of cells
Experimental: as §1, §2
(§3) This inhibition test of Cinacalcet HCl on endocrine-related cancer cells were using prostate cancer cell lines PC-3 and LNCap (Table 6), breast cancer cell lines MCF7 and MDA-MB-231 (Table 7), and ovarian cancer cell lines NIH-OVCAR-3 and TOV-21G (Table 8). The inhibitory tests of Cinacalcet HCl were performed 4 times for each cell lines and then the average value of the inhibitory tests was calculated.

MDA-MB-231 = test: Cell viability analysis (WST-1), MDA-MB-231; conditions: Homo sapiens, read-out: survival rate (viability) of cells
Experimental: as §1, §2, §3

NIH-OVCAR-3 = test: Cell viability analysis (WST-1), NIH-OVCAR-3; conditions: Homo sapiens, read-out: survival rate (viability) of cells
Experimental: as §1, §2, §3

Hep3B = test: Cell viability analysis (WST-1), Hep3B; conditions: Homo sapiens, read-out: survival rate (viability) of cells
Experimental: as §1, §2
(§4) This inhibition test of Cinacalcet HCl on gastrointestinal tract-related cancer cells were using gastric cancer cell lines AGS and MKN-45 (Table 9), hepatic cancer cell lines HepG2 and Hep3B (Table 10), colorectal cancer cell lines HCT116-wt and LoVo (Table 11), pancreatic cancer cell line AsPC-1 and BxPC-3(Table 12), tongue cancer cell line SAS (Table 13). The inhibitory tests of Cinacalcet HCl were performed 4 times for each cell lines and then the average value of the inhibitory tests was calculated.

LoVo = test: Cell viability analysis (WST-1), LoVo; conditions: Homo sapiens, read-out: survival rate (viability) of cells
Experimental: as §1, §2, §4

BCC = test: Cell viability analysis (WST-1), BCC; conditions: read-out: survival rate (viability) of cells
Experimental: as §1, §2
This inhibition test of Cinacalcet HCl on other cancer cells were using osteosarcoma cell line U2OS (Table 14), skin cancer cell lines A375 and BCC (Table 15). The inhibitory tests of Cinacalcet HCl were performed 4 times for each cell lines and then the average value of the inhibitory tests was calculated.

[1] = Cell viability analysis (WST-1), normal kidney cell line HEK293; conditions: human, HEK293 cells (normal kidney cell line)
Experimental: as §1
as §2, with “Otherwise, the higher viability of cancer cells represents worse inhibition effect via the Cinacalcet HCl drug.” left out
This inhibition test of Cinacalcet HCl on normal cells were using normal kidney cell line HEK293 (Table 16), normal pulmonary epithelial cell lines […] BEAS-2B (Table 17). The inhibitory tests of Cinacalcet HCl were performed 4 times for each cell lines and then the average value of the inhibitory tests was calculated The results were shown in Tables 16 and Tables 17.

bladder cancer cells = test: Summary of cell viability, bladder cancer cells; conditions: 72 hours, read-out: Inhibitory effect
Experimental: as §1, §2
(§5) Cinacalcet HCl is having different inhibitory effect on different tumor cell type even in the same cancer. […] (FIG. 1)

breast cancer cells = test: Summary of cell viability, breast cancer cells; conditions: 72 hours, read-out: Inhibitory effect
Experimental: as §1, §2, §5

pancreatic cancer cells = test: Summary of cell viability, pancreatic cancer cells; conditions: 72 hours, read-out: Inhibitory effect
Experimental: as §1, §2, §5

skin cancer cells = test: Summary of cell viability, skin cancer cells; conditions: 72 hours, read-out: Inhibitory effect
Experimental: as §1, §2, §5

various cancer cells = test: Inhibitory effect on various cancer cells; conditions: FIG. 1
Experimental: as §2, §5

C[C@@H](NCCCc1cccc(C(F)(F)F)c1)c1cccc2ccccc12 [Cinacalcet HCl, Cinacalcet hydrochloride] gave a viability at 10 µM (786-O; 786-0, 10 μM, 72 hours, test 0524-10 min, read-out: survival rate (viability) of cells) of 81.3%, a viability at 10 µM (786-O; 786-0, 10 μM, 72 hours, test 0526-10 min, read-out: survival rate (viability) of cells) of 71.6% and a viability at 10 µM (786-O; 786-0, 10 μM, 72 hours, test 0529-10 min, read-out: survival rate (viability) of cells) of 80.2%. It also gave a viability at 10 µM (786-O; 786-0, 10 μM, 72 hours, test 0531-10 min, read-out: survival rate (viability) of cells) of 87.1%, a viability at 10 µM (786-O; 786-0, 72 h, 10 μM, average of tests, read-out: survival rate (viability) of cells) of 80% and a viability at 10 µM (786-O; 786-0, 72 h, summary, Kidney cancer, 10 μM, read-out: Inhibitory effect) of 87.5%. It also gave a viability at 10 µM (PC-3; PC-3, 10 μM, 72 hours, test PC-3-0524-10 min) of 103%, a viability at 10 µM (PC-3; PC-3, 10 μM, 72 hours, test PC-3-0526-10 min) of 132% and a viability at 10 µM (PC-3; PC-3, 10 μM, 72 hours, test PC-3-0529-10 min) of 120%. For the same molecule, the viability at 10 µM (PC-3; PC-3, 10 μM, 72 hours, test PC-3-0531-10 min) was 135%, the viability at 10 µM (PC-3; PC-3, 72 h, 10 μM, average of tests) was 122% and the viability at 10 µM (MDA-MB-231; MDA-MB-231, 10 μM, 72 hours, test 0612-10 min) was 92.3%. It also gave a viability at 10 µM (MDA-MB-231; MDA-MB-231, 10 μM, 72 hours, test 0614-10 min) of 84.9%, a viability at 10 µM (MDA-MB-231; MDA-MB-231, 10 μM, 72 hours, test 0616-10 min) of 60.8% and a viability at 10 µM (MDA-MB-231; MDA-MB-231, 10 μM, 72 hours, test 0619-10 min) of 92.8%. The viability at 10 µM (MDA-MB-231; MDA-MB-231, 72 h, 10 μM, average of tests) was 82.7%, the viability at 10 µM (NIH-OVCAR-3; OVCAR-3, 10 μM, 72 hours, test 7-3-30 min) was 90.7% and the viability at 10 µM (NIH-OVCAR-3; OVCAR-3, 10 μM, 72 hours, test 7-4-30 min) was 111%. For the same molecule, the viability at 10 µM (NIH-OVCAR-3; OVCAR-3, 10 μM, 72 hours, test 7-7-30 min) was 100%, the viability at 10 µM (NIH-OVCAR-3; OVCAR-3, 10 μM, 72 hours, test -4-30 min) was 111% and the viability at 10 µM (NIH-OVCAR-3; OVCAR-3, 72 h, 10 μM, average of tests) was 103%. For the same molecule, the viability at 10 µM (Hep3B; 72 h, average of tests) was 134%, the viability at 10 µM (Hep3B; 72 hours, test 0612-20 min) was 143% and the viability at 10 µM (Hep3B; 72 hours, test 0614-20 min) was 125%. The viability at 10 µM (Hep3B; 72 hours, test 0616-20 min) was 152%, the viability at 10 µM (Hep3B; 72 hours, test 0619-20 min) was 117% and the viability at 10 µM (LoVo; 72 h, average of tests) was 93.4%. It also gave a viability at 10 µM (LoVo; 72 hours, test 0616-10 min) of 73.9%, a viability at 10 µM (LoVo; 72 hours, test 0619-10 min) of 125% and a viability at 10 µM (LoVo; 72 hours, test 0621-10 min) of 90.4%. For the same molecule, the viability at 10 µM (LoVo; 72 hours, test 0623-10 min) was 84.2%, the viability at 10 µM (BCC; 72 h, average of tests) was 111% and the viability at 10 µM (BCC; 72 hours, test 0602-30 min) was 114%. For the same molecule, the viability at 10 µM (BCC; 72 hours, test 0605-10 min) was 106%, the viability at 10 µM (BCC; 72 hours, test 0607-10 min) was 113% and the viability at 72 h, 10 µM ([1]; average of tests, read-out: survival rate (viability) of cells) was 114%. The viability at 72 h, 10 µM ([1]; summary, kidney cell lines, read-out: Inhibitory effect) was 114%, the viability at 10 µM (bladder cancer cells) was 90.4% and the viability at 10 µM (breast cancer cells) was 108%. For the same molecule, the viability at 10 µM (pancreatic cancer cells) was 82.4%, the viability at 10 µM (skin cancer cells) was 80% and the “inhibitory effect on various cancer cells” value (various cancer cells) was “significant inhibitory effect and specificity”.
